From ChEMBL document CHEMBL6078642, “Design, Synthesis, and Activity Evaluation of BRD4 PROTAC Based on Alkenyl Oxindole-DCAF11 Pair” (J Med Chem, 2024)
Activity calls are given as the source filed them. The calls are words filed in the database; no cut-off is given here.

Assays:
[1] = system: MDA-MB-231; test: Induction of BRD4 degradation in human MDA-MB-231 cells at 10 uM incubated for 12 hrs by immunoblot analysis; format: cell-based
[2] = system: MDA-MB-231; test: Antiproliferative activity against human MDA-MB-231 cells assessed as reduction in cell viability incubated for 2 days by CCK8 assay; format: functional, cell-based; details: MDA-MB-231, 48 h
[3] = system: MDA-MB-468; test: Antiproliferative activity against human MDA-MB-468 cells assessed as reduction in cell viability incubated for 2 days by CCK8 assay; format: functional, cell-based; details: MDA-MB-468, 48 h
[4] = system: MDA-MB-231; test: Antiproliferative activity against human MDA-MB-231 cells assessed as reduction in cell viability incubated for 2 days in presence of tert-butyl 2-(4-methyl-2-((2-oxo-6-(trifluoromethyl)indolin-3-ylidene)methyl)phenoxy)acetate by CCK8 assay; format: functional, cell-based; details: MDA-MB-231, 48 h
[5] = system: MDA-MB-468; test: Antiproliferative activity against human MDA-MB-468 cells assessed as reduction in cell viability incubated for 2 days in presence of tert-butyl 2-(4-methyl-2-((2-oxo-6-(trifluoromethyl)indolin-3-ylidene)methyl)phenoxy)acetate by CCK8 assay; format: functional, cell-based; details: MDA-MB-468, 48 h
[6] = system: MDA-MB-231; test: Induction of apoptosis in human MDA-MB-231 cells assessed as increase in cleaved PARP level by immunoblot analysis; format: functional, cell-based
[7] = system: MDA-MB-231; test: Induction of apoptosis in human MDA-MB-231 cells assessed as increase in cleaved caspase-7 level by immunoblot analysis; format: functional, cell-based
[8] = molecular target: T1, DCAF11-BRD4 (Homo sapiens, UniProt O60885+Q8TEB1); test: PROTAC activity at DCAF11/BRD4 in human MDA-MB-231 cells assessed as induction of BRD4 degradation at 10 uM incubated for 12 hrs by immunoblot analysis; format: cell-based
T1 sequence (Q8TEB1 whole entry, looked up, other chains not shown): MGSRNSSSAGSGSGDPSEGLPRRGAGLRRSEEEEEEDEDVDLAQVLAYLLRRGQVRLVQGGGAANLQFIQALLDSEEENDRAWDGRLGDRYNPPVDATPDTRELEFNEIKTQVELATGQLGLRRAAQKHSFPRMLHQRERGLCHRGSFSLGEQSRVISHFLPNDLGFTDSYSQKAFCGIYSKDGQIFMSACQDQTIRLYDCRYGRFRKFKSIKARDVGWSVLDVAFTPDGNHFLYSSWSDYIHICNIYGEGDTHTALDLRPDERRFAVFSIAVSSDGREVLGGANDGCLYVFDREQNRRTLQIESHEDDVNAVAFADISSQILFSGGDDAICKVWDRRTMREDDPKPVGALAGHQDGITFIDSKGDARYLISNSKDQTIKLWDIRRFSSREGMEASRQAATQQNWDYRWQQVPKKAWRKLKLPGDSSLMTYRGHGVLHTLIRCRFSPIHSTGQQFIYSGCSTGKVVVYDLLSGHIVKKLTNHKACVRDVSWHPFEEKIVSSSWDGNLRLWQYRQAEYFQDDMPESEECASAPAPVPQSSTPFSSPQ

[9] = system: MDA-MB-231; test: Antiproliferative activity against human MDA-MB-231 cells assessed as reduction in cell viability incubated for 2 days in presence of JQ1 by CCK8 assay; format: functional, cell-based; details: MDA-MB-231, 48 h
[10] = system: MDA-MB-468; test: Antiproliferative activity against human MDA-MB-468 cells assessed as reduction in cell viability incubated for 2 days in presence of JQ1 by CCK8 assay; format: functional, cell-based; details: MDA-MB-468, 48 h
[11] = molecular target: T1, DCAF11-BRD4; test: PROTAC activity at DCAF11/BRD4 in human MDA-MB-231 cells assessed as induction of BRD4 degradation at 1 uM incubated for 12 hrs in presence of JQ1 by immunoblot analysis; format: cell-based
[12] = molecular target: T1, DCAF11-BRD4; test: PROTAC activity at DCAF11/BRD4 BD1 domain (unknown origin) expressed in HEK293T cells assessed as induction of BRD4 degradation at 1 uM incubated for 12 hrs by Dual fluorescence reporter cell high content imaging analysis relative to control; format: cell-based
[13] = molecular target: T1, DCAF11-BRD4; test: PROTAC activity at DCAF11/BRD4 BD1 domain (unknown origin) expressed in HEK293T cells assessed as induction of BRD4 degradation at 10 to 100 nM incubated for 12 hrs by Dual fluorescence reporter cell high content imaging analysis; format: cell-based; details: dose 10-100 nM
[14] = molecular target: T1, DCAF11-BRD4; test: PROTAC activity at DCAF11/BRD4 in human MDA-MB-231 cells assessed as induction of BRD4 degradation at 10 to 100 nM incubated for 1 hrs by immunoblot analysis; format: cell-based; details: dose 10-100 nM
[15] = molecular target: T1, DCAF11-BRD4; test: PROTAC activity at DCAF11/BRD4 in human MDA-MB-231 cells assessed as induction of BRD4 degradation at 1 uM measured within 1 hrs by immunoblot analysis; format: cell-based
[16] = molecular target: T1, DCAF11-BRD4; test: PROTAC activity at DCAF11/BRD4 in human MDA-MB-231 cells assessed as induction of BRD4 degradation incubated for 12 hrs by immunoblot analysis; format: cell-based; details: dose 0.1-1000 nM
[17] = molecular target: T1, DCAF11-BRD4; test: PROTAC activity at DCAF11/BRD4 in human MDA-MB-231 cells assessed as induction of BRD4 degradation at 10 nM incubated for 12 hrs by immunoblot analysis; format: cell-based
[18] = molecular target: T1, DCAF11-BRD4; test: PROTAC activity at DCAF11/BRD4 in human MDA-MB-231 cells assessed as induction of BRD4 degradation by immunoblot analysis; format: cell-based
[19] = system: MDA-MB-231; test: Effect on BRD4 mRNA gene expression in human MDA-MB-231 cells at 0.1 to 1 microM incubated for 12 hrs by qPCR analysis; format: functional, cell-based; details: dose 0.1-1 µM
[20] = system: MDA-MB-231; test: Downregulation of BRD4 protein expression in human MDA-MB-231 cells at 1 uM incubated for 6 hrs by proteomic analysis; format: functional, cell-based
[21] = molecular target: T1, DCAF11-BRD4; test: PROTAC activity at DCAF11/BRD4 in human MDA-MB-231 cells assessed as induction of BRD4 degradation at 1 uM preincubated with MG132 for 1 hrs and measured after compound addition by immunoblot analysis; format: cell-based
[22] = molecular target: T1, DCAF11-BRD4; test: PROTAC activity at DCAF11/BRD4 in human MDA-MB-231 cells assessed as induction of BRD4 degradation at 1 uM preincubated with bortezomib for 1 hrs and measured after compound addition by immunoblot analysis; format: cell-based
[23] = molecular target: T1, DCAF11-BRD4; test: PROTAC activity at DCAF11/BRD4 in human MDA-MB-231 cells assessed as induction of BRD4 degradation at 1 uM preincubated with PYR41 for 1 hrs and measured after compound addition by immunoblot analysis; format: cell-based
[24] = molecular target: T1, DCAF11-BRD4; test: PROTAC activity at DCAF11/BRD4 in human MDA-MB-231 cells assessed as induction of BRD4 degradation at 1 uM preincubated with MLN4924 for 1 hrs and measured after compound addition by immunoblot analysis; format: cell-based
[25] = molecular target: T1, DCAF11-BRD4; test: PROTAC activity at DCAF11/BRD4 in human MDA-MB-231 cells assessed as induction of BRD4 degradation at 1 uM preincubated with chloroquine for 1 hrs and measured after compound addition by immunoblot analysis; format: cell-based
[26] = molecular target: T1, DCAF11-BRD4; test: PROTAC activity at DCAF11/BRD4 in human MDA-MB-231 cells assessed as induction of BRD4 degradation at 1 uM preincubated with bafilomycin A1 for 1 hrs and measured after compound addition by immunoblot analysis; format: cell-based
[27] = system: HEK293T; test: Induction of BRD4 BD1 domain (unknown origin) degradation expressed in DCAF11 knockout HEK293T cells assessed as decrease in red fluorescence at 1 uM incubated for 12 hrs by dual fluorescence reporter cell based high content imaging analysis; details: Homo sapiens
[28] = system: HEK293T; test: Induction of BRD4 BD1 domain (unknown origin) degradation expressed in DCAF11 knockout HEK293T cells at 1 uM incubated for 12 hrs by immunoblot analysis; format: cell-based; details: Homo sapiens
[29] = molecular target: T1, DCAF11-BRD4; test: PROTAC activity at DCAF11/BRD4 in human MDA-MB-231 cells assessed as induction of BRD4 degradation at 1 uM incubated for 12 hrs in presence of tert-butyl 2-(4-methyl-2-((2-oxo-6-(trifluoromethyl)indolin-3-ylidene)methyl)phenoxy)acetate by immunoblot analysis; format: cell-based
[30] = molecular target: T1, DCAF11-BRD4; test: Binding affinity to HA-tagged DCAF11/Flag-tagged BRD4 BD1 domain (unknown origin) expressed in HEK293T cells by co-immunoprecipitation analysis; format: cell-based
[31] = molecular target: T1, DCAF11-BRD4; test: Binding affinity to DCAF11/BRD4 BD1 domain in HEK293T cells by co-immunoprecipitation analysis; format: cell-based
[32] = system: MCF7; test: Antiproliferative activity against human MCF7 cells assessed as reduction in cell viability incubated for 2 days by CCK8 assay; format: functional, cell-based; details: MCF7, 48 h
[33] = system: T47D; test: Antiproliferative activity against human T47D cells assessed as reduction in cell viability incubated for 2 days by CCK8 assay; format: functional, cell-based; details: 48 h
[34] = system: MDA-MB-157; test: Antiproliferative activity against human MDA-MB-157 cells assessed as reduction in cell viability incubated for 2 days by CCK8 assay; format: functional, cell-based; details: MDA-MB-157, 48 h
[35] = system: HCC1937; test: Antiproliferative activity against human HCC1937 cells assessed as reduction in cell viability incubated for 2 days by CCK8 assay; format: functional, cell-based; details: HCC1937, 48 h
[36] = system: BT-549; test: Antiproliferative activity against human BT-549 cells assessed as reduction in cell viability incubated for 2 days by CCK8 assay; format: functional, cell-based; details: BT-549, 48 h
[37] = molecular target: T1, DCAF11-BRD4; test: PROTAC activity at DCAF11/BRD4 in human T47D cells assessed as induction of BRD4 degradation at 1 uM incubated for 12 hrs by immunoblot analysis; format: cell-based
[38] = molecular target: T1, DCAF11-BRD4; test: PROTAC activity at DCAF11/BRD4 in human BT-549 cells assessed as induction of BRD4 degradation at 1 uM incubated for 12 hrs by immunoblot analysis; format: cell-based
[39] = molecular target: T1, DCAF11-BRD4; test: PROTAC activity at DCAF11/BRD4 in human MCF7 cells assessed as induction of BRD4 degradation at 1 uM incubated for 12 hrs by immunoblot analysis; format: cell-based
[40] = molecular target: T1, DCAF11-BRD4; test: PROTAC activity at DCAF11/BRD4 in human MDA-MB-468 cells assessed as induction of BRD4 degradation at 1 uM incubated for 12 hrs by immunoblot analysis; format: cell-based
[41] = molecular target: T1, DCAF11-BRD4; test: PROTAC activity at DCAF11/BRD4 in human MDA-MB-157 cells assessed as induction of BRD4 degradation at 1 uM incubated for 12 hrs by immunoblot analysis; format: cell-based
[42] = molecular target: T1, DCAF11-BRD4; test: PROTAC activity at DCAF11/BRD4 in human HCC1937 cells assessed as induction of BRD4 degradation at 1 uM incubated for 12 hrs by immunoblot analysis; format: cell-based
[43] = molecular target: T1, DCAF11-BRD4; test: PROTAC activity at DCAF11/BRD4 in human MDA-MB-231 cells assessed as induction of BRD4 degradation at 1 to 100 nM incubated for 1 hrs by Western blot analysis; format: cell-based; details: dose 1-100 nM
[44] = system: MDA-MB-231; test: Inhibition of cell migration in human MDA-MB-231 cells at 0.1 to 1 uM measured after 48 hrs by crystal violet staining based transwell migration assay; format: functional; details: dose 0.1-1 µM

SMILES: Cc1sc2c(c1C)C(c1ccc(Cl)cc1)=N[C@@H](CC(=O)O)c1nnc(C)n1-2
- Activity [1]: inactive
- IC50 [2]: 5.13 µM
- IC50 [3]: 25.9 µM
- IC50 [4]: 3.71 µM
- IC50 [5]: 10 µM
- Activity [6]: inactive
- Activity [7]: inactive

SMILES: Cc1ccc(OCC(=O)OC(C)(C)C)c(/C=C2\C(=O)Nc3cc(C(F)(F)F)ccc32)c1
- Activity [8]: inactive
- IC50 [2]: 11.4 µM
- IC50 [3]: 26.6 µM
- IC50 [9]: 3.71 µM
- IC50 [10]: 10 µM
- Activity [6]: inactive
- Activity [7]: inactive

SMILES: Cc1ccc(OCC(=O)NCCCOCCOCCOCCCNC(=O)C[C@@H]2N=C(c3ccc(Cl)cc3)c3c(sc(C)c3C)-n3c(C)nnc32)c(/C=C2\C(=O)Nc3cc(C(F)(F)F)ccc32)c1 (stereo in doubt)
- Activity [11]: inactive
- Activity [12]: > 35%
- Activity [13]: Active
- Activity [14]: Active
- Activity [15]: Active
- Activity [16]: Dose-dependent-effect
- Activity [17]: Active
- DC50 [18]: 0.00736 µM
- Activity [19]: inactive
- Activity [20]: Active
- Activity [21]: inactive
- Activity [22]: inactive
- Activity [23]: inactive
- Activity [24]: inactive
- Activity [25]: Active
- Activity [26]: Active
- Activity [27]: inactive
- Activity [28]: inactive
- Activity [29]: inactive
- Activity [30]: Active
- Activity [31]: Active
- IC50 [32]: 2.85 µM
- IC50 [33]: 0.63 µM
- IC50 [2]: 0.07 µM
- IC50 [34]: 0.1 µM
- IC50 [3]: 0.02 µM
- IC50 [35]: 0.18 µM
- IC50 [36]: 6.37 µM
- Activity [37]: Active
- Activity [38]: Active
- Activity [39]: Active
- Activity [40]: Active
- Activity [41]: Active
- Activity [42]: Active
- Activity [43]: Active; Degradation Capability Comparable To Dbet6 And Mz1
- inhibition [44]: Active
- Activity [6]: Active
- Activity [7]: Active
